The values that follow are results of earlier work, collected in patent publication US20070032460A1, “Use of voacamine and related compounds in the treatment of malaria” (priority 2005, published 2007).

The data set deals with multi-drug resistant tumor cells. The settings on record: cited from earlier work.

In the case of `CC=C1CN(C)C2Cc3c([nH]c4ccccc34)C(c3cc4[nH]c5c(c4cc3OC)CCN3CC4CC(CC)C3C5(C(=O)OC)C4)CC1C2C(=O)OC` (stereo not shown) [VOA, Voacamine], the “effect on vinblastine-mediated cytotoxicity” value is reported as “enhance vinblastine-mediated cytotbxicity”.
